Experimental data: patent US10239849B2 (Merck Sharp & Dohme Corp., priority 2015, dated 2019)
pEC50: −log10 of the molar value.

How the values were obtained:
[1] = biological target: T1, glutathione-S-transferase (GST) tagged LXRbeta LBD (ligand binding domain) (Homo sapiens, UniProt P55055); assay: LanthaScreen TR-FRET Liver X Receptor Coactivator Assay, LXR beta-LBD; format: biochemical; conditions: for Emax: efficacy in relation to reference dual agonist T1317, read-out: LXR beta activity at max dose (%) (Emax); for pEC50: potency (Inflection Point) of co-activator recruitment, TR-FRET, read-out: LXR beta IP
T1 construct: purchased Invitrogen pv4658.pps
T1 sequence (P55055 222-460 limits assumed): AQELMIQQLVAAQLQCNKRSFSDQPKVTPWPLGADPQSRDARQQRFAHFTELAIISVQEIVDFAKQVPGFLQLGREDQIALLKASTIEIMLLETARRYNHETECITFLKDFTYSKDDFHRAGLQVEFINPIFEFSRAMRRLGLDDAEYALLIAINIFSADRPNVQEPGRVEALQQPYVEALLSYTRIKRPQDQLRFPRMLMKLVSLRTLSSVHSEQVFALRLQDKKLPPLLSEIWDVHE
Description: (§1) While running the LanthaScreen™ TR-FRET Liver X Receptor Coactivator Assay, LXR alpha-LBD or LXR beta-LBD was added to ligand test compounds followed by addition of a mixture of a fluorescein-labelled coactivator peptide and terbium-conjugated anti-GST antibody. After an incubation period at room temperature, TR-FRET (time-resolved fluorescence resonance energy transfer) was measured using a filter-based instrument capable of TR-FRET, e.g. PerkinElmer Envision.

[2] = biological target: T2, glutathione-S-transferase (GST) tagged LXRalpha LBD (ligand binding domain) (Homo sapiens, UniProt Q13133); assay: LanthaScreen TR-FRET Liver X Receptor Coactivator Assay, LXR alpha-LBD; format: biochemical; conditions: for Emax: efficacy in relation to reference dual agonist T1317, read-out: LXR alpha activity at max dose (%) (Emax); for pEC50 / LXR alpha IP (nM): potency (Inflection Point) of co-activator recruitment, TR-FRET; for pEC50: read-out: LXR alpha IP
T2 construct: purchased Invitrogen pv4655
T2 sequence (Q13133 209-447 limits assumed): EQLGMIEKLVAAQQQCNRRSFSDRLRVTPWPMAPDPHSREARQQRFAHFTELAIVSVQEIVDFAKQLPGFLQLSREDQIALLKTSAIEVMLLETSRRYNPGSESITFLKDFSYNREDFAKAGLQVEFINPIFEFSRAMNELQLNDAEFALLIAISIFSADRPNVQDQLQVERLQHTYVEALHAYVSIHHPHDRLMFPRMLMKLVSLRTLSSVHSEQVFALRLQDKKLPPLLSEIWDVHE
Description: as §1

| Emax [1] [%] | pEC50 [1] | Emax [2] [%] | pEC50 [2] | LXR alpha IP (nM) [2] | SMILES |
| --- | --- | --- | --- | --- | --- |
| 100 | 7.03 | 53 | 5.38 | – | CCCC(O)(C(=O)N1CCN(c2ncc(-c3ccc(C(=O)N(C)C)c(Cl)c3)cc2C#N)CC1)C(F)(F)F (stereo not shown) [Example 2-25, 2-chloro-4-(5-cyano-6-{4-[2-hydroxy-2-(trifluoromethyl)pentanoyl]piperazin-1-yl}pyridin-3-yl)-N,N-dimethylbenzamide] |
| 98 | 7.92 | 30 | 5.72 | – | CNC(=O)c1ccc(-c2cnc(N3CCN(C(=O)[C@](O)(c4ccccc4)C(F)(F)F)CC3)c(C#N)c2)cc1Cl [Example 2-28, 2-chloro-4-(5-cyano-6-{4-[(2R)-3,3,3-trifluoro-2-hydroxy-2-phenylpropanoyl]piperazin-1-yl}pyridin-3-yl)-N-methylbenzamide] |
| 76 | 7.06 | 54 | 5.57 | – | CCN(C)C(=O)c1ccc(-c2cnc(N3CCN(C(=O)OC(C)(C)C)CC3)c(C#N)c2)cc1Cl [Example 5-5, tert-butyl 4-(5-{3-chloro-4-[ethyl(methyl)carbamoyl]phenyl}-3-cyanopyridin-2-yl)piperazine-1-carboxylate] |
| 99 | 6.61 | 42 | 4.78 | – | CN(C)C(=O)c1ccc(-c2cnc(N3CCN(C(=O)C(=O)C(F)(F)F)CC3)c(C#N)c2)cc1Cl [Example 2-9, 2-chloro-4-{5-cyano-6-[4-(3,3,3-trifluoro-2-oxopropanoyl)piperazin-1-yl]pyridin-3-yl}-N,N-dimethylbenzamide] |
| 81 | 6.69 | 36 | 5.29 | – | CCCC(O)(C(=O)N1CCN(c2ncc(-c3ccc(C(=O)N(C)C)c(Cl)c3)cc2C#N)CC1)C(F)(F)C(F)(F)F (stereo not shown) [Example 2-36, 2-chloro-4-(5-cyano-6-{4-[2-hydroxy-2-(pentafluoroethyl)pentanoyl]piperazin-1-yl}pyridin-3-yl)-N,N-dimethylbenzamide] |
| 63 | 5.63 | 10 | – | No IP | Cc1nonc1CC(=O)N1CCN(c2ncc(-c3ccc(C(=O)N(C)C)c(Cl)c3)cc2C#N)CC1 [Example 2-10, 2-chloro-4-(5-cyano-6-{4-[(4-methyl-1,2,5-oxadiazol-3-yl)acetyl]piperazin-1-yl}pyridin-3-yl)-N,N-dimethylbenzamide] |
| 102 | 6.86 | 60 | 5.22 | – | CCC(O)(C(=O)N1CCN(c2ncc(-c3ccc(C(=O)N(C)C)c(Cl)c3)cc2C#N)CC1)C(F)(F)F (stereo not shown) [Example 2-20, 2-chloro-4-(5-cyano-6-{4-[2-hydroxy-2-(trifluoromethyl)butanoyl]piperazin-1-yl}pyridin-3-yl)-N,N-dimethylbenzamide] |
| 83 | 6.97 | 64 | 5.89 | – | CN(C)C(=O)c1ccc(-c2ccc(N3CCN(C(=O)c4c(F)cccc4C(F)(F)F)CC3)c(Cl)c2)cc1Cl [Example 4-7, 3,3′-dichloro-4′-(4-{[2-fluoro-6-(trifluoromethyl)phenyl]carbonyl}piperazin-1-yl)-N,N-dimethylbiphenyl-4-carboxamide] |
| 79 | 6.47 | 39 | 4.85 | – | CN(C)C(=O)c1ccc(-c2cnc(N3CCN(S(=O)(=O)C4CCCCC4)CC3)c(C#N)c2)cc1Cl [Example 1-7, 2-chloro-4-{5-cyano-6-[4-(cyclohexylsulfonyl)piperazin-1-yl]pyridin-3-yl}-N,N-dimethylbenzamide] |
| 83 | 6.73 | 54 | 4.52 | – | CN(C)C(=O)c1ccc(-c2cnc(N3CCN(C(=O)Cc4c[nH]c5ccccc45)CC3)c(C#N)c2)cc1Cl [Example 2-22, 2-chloro-4-{5-cyano-6-[4-(1H-indol-3-ylacetyl)piperazin-1-yl]pyridin-3-yl}-N,N-dimethylbenzamide] |
| 85 | 6.03 | 31 | 4.22 | – | CN(C)C(=O)c1ccc(-c2cnc(N3CCN(S(=O)(=O)c4cccnc4)CC3)c(C#N)c2)cc1Cl [Example 1-5, 2-chloro-4-{5-cyano-6-[4-(pyridin-3-ylsulfonyl)piperazin-1-yl]pyridin-3-yl}-N,N-dimethylbenzamide] |
| 78 | 7.49 | 73 | 5.82 | – | CN(C)C(=O)c1ccc(-c2ccc(N3CC4CCC3CN4C(=O)OC(C)(C)C)cc2)cc1Cl (stereo not shown) [Example 8-4, tert-butyl 5-[3′-chloro-4′-(dimethylcarbamoyl)biphenyl-4-yl]-2,5-diazabicyclo[2.2.2]octane-2-carboxylate] |
| 97 | 7.37 | 47 | 5.94 | – | CN(C)C(=O)c1ccc(-c2cnc(N3CCN(C(=O)C4(c5ccccc5)CCC4)CC3)c(C#N)c2)cc1Cl [Example 2-23, 2-chloro-4-(5-cyano-6-{4-[(1-phenylcyclobutyl)carbonyl]piperazin-1-yl}pyridin-3-yl)-N,N-dimethylbenzamide] |
| 81 | 6.03 | 37 | 5.03 | – | CN(CCn1ccnc1)C(=O)c1ccc(-c2cnc(N3CCN(C(=O)OC(C)(C)C)CC3)c(C#N)c2)cc1Cl [Example 5-21, tert-butyl 4-[5-(3-chloro-4-{[2-(1H-imidazol-1-yl)ethyl](methyl)carbamoyl}phenyl)-3-cyanopyridin-2-yl]piperazine-1-carboxylate] |
| 87 | 7.41 | 79 | 5.80 | – | CN(C)C(=O)c1ccc(-c2ccc(N3CC4CCC3CN4C(=O)OC(C)(C)C)c(Cl)c2)cc1Cl (stereo not shown) [Example 4-3, tert-butyl 5-[3,3′-dichloro-4′-(dimethylcarbamoyl)biphenyl-4-yl]-2,5-diazabicyclo[2.2.2]octane-2-carboxylate] |
| 105 | 7.25 | 67 | 5.32 | – | CN(C)C(=O)c1ccc(-c2cnc(N3CCN(C(=O)C(C)(C)C)CC3)c(C#N)c2)cc1Cl [Example 2-3, 2-chloro-4-{5-cyano-6-[4-(2,2-dimethylpropanoyl)piperazin-1-yl]pyridin-3-yl}-N,N-dimethylbenzamide] |
| 63 | 6.48 | 38 | 4.90 | – | CC(C)(C)OC(=O)N1CCN(c2ncc(-c3ccc(C(=O)N4CCOCC4)c(Cl)c3)cc2C#N)CC1 [Example 5-14, tert-butyl 4-{5-[3-chloro-4-(morpholin-4-ylcarbonyl)phenyl]-3-cyanopyridin-2-yl}piperazine-1-carboxylate] |
| 75 | 7.01 | 44 | 5.88 | – | CN(C)C(=O)c1ccc(-c2ccc(N3CCN(C(=O)c4ccccc4Cl)CC3)c(Cl)c2)cc1Cl [Example 4-4, 3,3′-dichloro-4′-{4-[(2-chlorophenyl)carbonyl]piperazin-1-yl}-N,N-dimethylbiphenyl-4-carboxamide] |
| 97 | 6.42 | 29 | 5.24 | – | CN(C)C(=O)c1ccc(-c2ccc(N3CCN(S(=O)(=O)c4c(Cl)cccc4Cl)CC3)cc2)cc1Cl [Example 4-13, 3-chloro-4′-{4-[(2,6-dichlorophenyl)sulfonyl]piperazin-1-yl}-N,N-dimethylbiphenyl-4-carboxamide] |
| 85 | 5.78 | 16 | – | No IP | CN(C)C(=O)c1ccc(-c2ccc(N3CCN(C(=O)c4ccccc4Cl)CC3)cc2)cc1Cl [Example 4-15, 3-chloro-4′-{4-[(2-chlorophenyl)carbonyl]piperazin-1-yl}-N,N-dimethylbiphenyl-4-carboxamide] |
| 31 | 6.98 | 16 | – | No IP | CN(C)C(=O)c1ccc(-c2cnc(N3CCN(C(=O)OCC4CC4(C)C)CC3)c(C#N)c2)cc1Cl (stereo not shown) [Example 3-13, (2,2-dimethylcyclopropyl)methyl 4-{5-[3-chloro-4-(dimethylcarbamoyl)phenyl]-3-cyanopyridin-2-yl}piperazine-1-carboxylate] |

| SMILES | Emax [1] [%] | pEC50 [1] | Emax [2] [%] | pEC50 [2] | LXR alpha IP (nM) [2] |
| --- | --- | --- | --- | --- | --- |
| CN(C)C(=O)c1ccc(-c2ccc(N3CC4CCC(C3)N4C(=O)OC(C)(C)C)cc2)cc1Cl [Example 8-3, tert-butyl 3-[3′-chloro-4′-(dimethylcarbamoyl)biphenyl-4-yl]-3,8-diazabicyclo[3.2.1]octane-8-carboxylate] | 87 | 6.72 | 64 | 4.93 | – |
